From US7223791B2, “Function regulator for retinoid relative receptor” (Takeda Pharmaceutical Company Limited, priority 2001, dated 2007)

Assays:
KKA^y mice = assay: Glucose-lowering and lipid-lowering (triglyceride-lowering) actions in mice; type: in vivo; conditions: test compound 0.01% in powdery diet for four days, non-administration group taken as 100%; for glucose-lowering action (%): reduction percent of blood glucose level; for lipid-lowering action (%): reduction percent of blood triglyceride level
From the text: Glucose-Lowering and Lipid-Lowering (Triglyceride-Lowering) Actions in Mice
Test compounds were mixed in a powdery diet (CE-2, Japan Clea) at the proportion of 0.01%, and freely given to KKA^y mice (9 to 12 weeks old, 5 mice per group), a model of obesity-non-insulin dependent diabetes mellitus (type 2 diabetes mellitus), for four days. During this period, water was given freely. Blood was sampled from orbital venous plexus, and glucose and triglyceride levels in plasma separated from the blood were determined enzymatically using L type Wako Glu2 (Wako Pure Chemical Industries, Ltd.) or L type Wako TG-H (Wako Pure Chemical Industries, Ltd.), respectively. The results are given in [Table 1].
In the Table, “glucose-lowering action (%)” represents a reduction percent (%) of the blood glucose level in a test compound administration group when the blood glucose level in a test compound non-administration group is taken as 100%. In addition, “lipid-lowering action (%)” represents a reduction percent (%) of the blood triglyceride level in the test compound administration group when the blood triglyceride level in the test compound non-administration group is taken as 100%.

PPARγ-RXRα heterodimer = biological target: T1, PPARγ-RXRα heterodimer (Homo sapiens, UniProt P19793+P37231); assay: PPARγ-RXRα heterodimer ligand activity (luciferase reporter, PPARγ:RXRα:4ERPP/CHO-K1 cells); type: cell-based; conditions: 48 hrs, concentration for 50% of the maximum fold induction
T1 construct: 1.4 kb DNA fragment containing PPARγ gene was recovered from the gel; 1.4 kb DNA fragment containing RXRα gene was recovered from the gel; expressed in transfected cells
T1 sequence (P37231 1-477 isoform P37231-2): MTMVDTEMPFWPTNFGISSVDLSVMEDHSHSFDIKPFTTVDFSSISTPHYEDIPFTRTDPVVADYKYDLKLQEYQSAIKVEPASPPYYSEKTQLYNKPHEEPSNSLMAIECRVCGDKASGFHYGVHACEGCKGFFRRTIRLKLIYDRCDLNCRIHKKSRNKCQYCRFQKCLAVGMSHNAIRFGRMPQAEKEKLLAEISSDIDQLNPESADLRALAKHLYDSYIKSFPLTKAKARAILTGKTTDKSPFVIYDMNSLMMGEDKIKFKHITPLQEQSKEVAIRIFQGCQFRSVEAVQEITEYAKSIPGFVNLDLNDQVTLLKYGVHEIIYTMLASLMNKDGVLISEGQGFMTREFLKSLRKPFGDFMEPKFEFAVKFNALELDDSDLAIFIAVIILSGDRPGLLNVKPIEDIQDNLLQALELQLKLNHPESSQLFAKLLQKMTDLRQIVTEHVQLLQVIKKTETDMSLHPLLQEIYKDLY
T1 sequence (P19793 1-462): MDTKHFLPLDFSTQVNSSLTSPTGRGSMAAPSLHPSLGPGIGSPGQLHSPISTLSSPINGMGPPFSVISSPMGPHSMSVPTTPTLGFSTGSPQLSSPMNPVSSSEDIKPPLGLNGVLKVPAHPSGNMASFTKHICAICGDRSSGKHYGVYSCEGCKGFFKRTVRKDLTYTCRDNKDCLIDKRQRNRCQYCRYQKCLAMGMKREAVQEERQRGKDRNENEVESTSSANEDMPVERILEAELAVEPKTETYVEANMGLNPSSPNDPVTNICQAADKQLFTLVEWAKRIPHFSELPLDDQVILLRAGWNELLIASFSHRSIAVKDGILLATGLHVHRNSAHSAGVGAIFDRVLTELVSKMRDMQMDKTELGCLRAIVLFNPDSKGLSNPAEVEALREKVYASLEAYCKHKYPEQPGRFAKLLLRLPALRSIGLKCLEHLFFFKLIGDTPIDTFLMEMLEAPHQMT
Description: (PPARγ-RXRα Heterodimer Ligand Activity)
PPARγ: RXRα: 4ERPP/CHO-K1 cells obtained in the following Reference Example 5 were cultured in HAM F12 medium (manufactured by NISSUI SEIYAKU) containing 10% fetal bovine serum [manufactured by Life Technologies, Inc., USA], seeded in a 96-well white plate [manufactured by Corning Coster Corporation, USA] at the density of 2×10^4 cells/well and cultured in a CO2 gas incubator at 37° C. overnight.
After washing the 96-well white plate with PBS (Phosphate-buffered saline), 90 μl of HAM F12 medium containing 0.1% fatty acid-free bovine serum albumin (BSA) and 10 μl of test compound were added, and the cells were cultured in a CO2 gas incubator at 37° C. for 48 hrs. The medium was removed and 40 μl of PicaGene 7.5 (manufactured by Wako Pure Chemical Industries, Ltd.) was added. After stirring, the luciferase activity was determined using Lumistar [manufactured by BMG Labtechnologies GmbH, Germany].
The fold induction was calculated from the luciferase activity of each test compound when the luciferase activity of the test compound non-administration group is taken as 1. The values of the test compound concentration and the fold induction were analyzed using PRISM 2.01 (produced by GraphPad Software Inc. USA) to calculate the EC50 values, the concentration of a test compound for 50% of the maximum fold induction. The results are shown in [Table 2].
Introduction of Human PPARγ- and RXRα-Expression Plasmid and Reporter Plasmid into CHO-K1 Cell as Well as Establishment of Expressed Cell
A CHO-K1 cell cultured in a tissue culture flask (750 ml) [produced by Corning Costar Corporation, USA] containing HAM F12 medium (produced by NISSUI SEIYAKU) supplemented with 10% fetal bovine serum [produced by Life Technologies, Inc., USA] was scraped by treating with 0.5 g/L trypsin-0.2 g/L EDTA (ethylenediamine tetraacetate) [produced by Life Technologies, Inc., USA], and then the cell was washed with PBS (Phosphate-buffered saline)[produced by Life Technologies, Inc., USA], centrifuged (1000 rpm, 5 minutes) and suspended in PBS. Subsequently, DNA was introduced into the cell under the conditions shown below using GENE PULSER (produced by Bio-Rad Laboratories, USA).
Namely, to a cuvette having a 0.4 cm gap were added 8×10^6 cells and 10 μg of plasmid pVgRXR2-hPPARγ obtained in Reference Example 3 and 10 μg of reporter plasmid pGL3-4ERPP-TK neo obtained in Reference Example 4, which was subjected to electroporation at the voltage of 0.25 kV under the capacitance of 960 μF. Subsequently, the cell was transferred into a HAM F12 medium containing 10% fetal bovine serum and cultured for 24 hours, and then the cell was scraped again and centrifuged, and then suspended in HAM F12 medium containing 10% fetal bovine serum supplemented with 500 μg/ml of Geneticin [produced by Life Technologies, Inc., USA] and 250 μg/ml of Zeocin (produced by Invitrogen, USA). The obtained suspension was diluted to the density of 10^4 cells/ml and inoculated in a 96-well plate [produced by Corning Costar Corporation, USA], which was cultured in a CO2 gas incubator at 37° C., whereby obtaining a Geneticin- and Zeocin-resistant transformant.
Subsequently, after the transformant cell line thus obtained was cultured in a 24-well plate [produced by Corning Costar Corporation, USA], a cell line in which the luciferase was expressed and induced, i.e., PPARγ: RXRα: 4ERPP/CHO-K1 cell was selected by the addition of 10 μM pioglitazone hydrochloride.

| melting point [°C] | EC50 (PPARγ-RXRα heterodimer) [nM] | SMILES | glucose-lowering action (%) (KKA^y mice) | lipid-lowering action (%) (KKA^y mice) |
| --- | --- | --- | --- | --- |
| 270 to 271 | 3.8 | O=C(O)c1ccc(-c2ccc(-c3ccc(C(F)(F)F)cc3)o2)cc1 [Example 10, 4-[5-(4-trifluoromethylphenyl)-2-furyl]benzoic acid] | 37 | 62 |
| 285 to 286 | 22 | O=C(O)c1ccc(-c2ccc(-c3ccc(Cl)cc3)s2)cc1 [Example 15, 4-[5-(4-chlorophenyl)-2-thienyl]benzoic acid] | 30 | 54 |
| 218 to 219 |  | COC(=O)c1ccc(-c2nnc(-c3ccc(C(F)(F)F)cc3)s2)cc1 [Example 58, methyl 4-[5-(4-trifluoromethylphenyl)-1,3,4-thiadiazol-2-yl]benzoate] | 37 | 48 |
